The record followed here is PubChem BioAssay AID1552 (Sanford-Burnham Center for Chemical Genomics, 2009).

The structures appear in SMILES notation. Active and inactive are the calls of the source. The rule behind the calls is not given here.

The target of the assay is Ubiquitin-conjugating enzyme E2 N (Homo sapiens) (UniProt P61088). Briefly: UBE2N binders by NMR, biophysical, purified protein (AID 1552). The following applies: NMR binding to purified UBE2N.
Chain of Ubiquitin-conjugating enzyme E2 N (Homo sapiens) (P61088 whole entry, looked up): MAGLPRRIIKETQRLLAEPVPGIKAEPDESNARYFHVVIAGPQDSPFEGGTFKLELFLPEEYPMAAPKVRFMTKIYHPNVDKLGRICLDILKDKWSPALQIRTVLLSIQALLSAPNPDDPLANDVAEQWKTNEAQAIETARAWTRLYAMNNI

With `NC(=O)CSCc1ccc(Br)cc1`, the Kd is > 4 mM (inactive).

For the molecule `Nc1ccc(F)cc1F`, the Kd is > 4 mM (inactive). On to `O=C(O)CSCC(=O)Nc1cccc(O)c1`, for which the Kd was > 4 mM (inactive). With `CCC(=O)Oc1ccc(N2C(=O)CCC2=O)cc1`, the Kd is > 4 mM (inactive). As to `C=C1CCC(=O)C(C)CCC2C1CC2(C)C` (stereo not given), the Kd is > 4 mM (inactive).

For the molecule `Cc1cc(O)c2c(c1)C(=O)c1cccc(O)c1C2=O`, the Kd was > 4 mM (inactive). For `CC(C)=CCc1c(O)cc2occ(-c3ccc4c(c3)OCO4)c(=O)c2c1O`, the Kd was > 4 mM (inactive).

Turning to `Nc1cccc(-n2cnnn2)c1`, the Kd was > 4 mM (inactive).

Regarding `NC12CC3CC(C1)CC(CC(=O)O)(C3)C2`, the Kd was > 4 mM (inactive).

`Cc1occc1C(=O)Nc1cc(C(C)(C)C)on1`: the Kd is > 4 mM (inactive). `CC(C)(C)CC(=O)N1CCC(C(N)=O)CC1`: the Kd is > 4 mM (inactive). `COC(=O)[C@@H]1OC(=O)C2OC23[C@@]1(C)CCC1[C@@]2(C)CCC(=O)C(C)(C)C2C[C@@H](OC(C)=O)[C@]13C` (stereo not given in full): the Kd is > 4 mM (inactive). The same measure for `NC(=O)c1ccsc1NC(=O)c1ccco1`: > 4 mM (inactive). With `Nc1ccc(N2CCOCC2)cc1`, the Kd is > 4 mM (inactive).

On to `O=c1[nH]c(NCCO)nnc1Cc1ccccc1`, for which the Kd is > 4 mM (inactive). In the case of `CC(=O)OCC(OC(C)=O)C(OC(C)=O)C(OC(C)=O)C(OC(C)=O)C(COC(C)=O)OC(C)=O` (stereo not given), the Kd was > 4 mM (inactive).

Turning to `CCOC(=O)c1c(C)nc2ncccn12`, the Kd is > 4 mM (inactive).

For `Cc1occc1C(=O)Nc1ccc2c(c1)OCO2`, the Kd was > 4 mM (inactive). For `Cn1c(CNc2ccccc2)cc(=O)n(C)c1=O`, the Kd was > 4 mM (inactive).

Take `Oc1ccc(-n2ccnc2)cc1`: the Kd was > 4 mM (inactive). On to `Cc1ccn(S(=O)(=O)c2ccc(F)cc2)n1`, for which the Kd is > 4 mM (inactive).

As to `CCN1CCc2c(sc(N)c2C#N)C1`, the Kd is > 4 mM (inactive). For `C[C@H]1[C@H]2CCC3C4CC=C5C[C@@H](N(C)C)CC[C@]5(C)C4CC[C@@]32CN1C` (stereo not given in full), the Kd is > 4 mM (inactive).

In the case of `CC(C)=CC(=O)Nc1ccc2c(c1)OCO2`, the Kd is > 4 mM (inactive). The same measure for `OCc1cccc2c1OCO2`: > 4 mM (inactive); for `COc1cc(N)ccc1NC(=O)c1cccs1`: > 4 mM (inactive). The same measure for `C=C1CCC2C(CC2(C)C)C(=O)CCC1O` (stereo not given): > 4 mM (inactive); for `COc1ccc(C(=O)CC(=O)O)c2c1C=CC(C)(C)O2`: > 4 mM (inactive); for `CSc1ncc(CO)n1Cc1ccccc1`: > 4 mM (inactive). With `CC(C)C(=O)NCC(c1ccco1)N1CCOCC1` (stereo not given), the Kd is > 4 mM (inactive). As for `COc1ccccc1N1C(=N)SCC1=O`, the Kd was > 4 mM (inactive). For `COC(=O)c1cccc(N)c1` the value was > 4 mM (inactive). As to `CNC(=O)C(=O)Nc1ccc(F)cc1`, the Kd is > 4 mM (inactive). Regarding `O=C(Cc1c(F)cccc1Cl)Nc1cccnc1`, the Kd was > 4 mM (inactive).

Take `Cc1cc(C)cc(C(=O)N2CCC(C(N)=O)CC2)c1`: the Kd was > 4 mM (inactive). For `CN(C)N1C(=O)C2CCCCC2C1=O` (stereo not given) the value was > 4 mM (inactive); for `CC1=CC(=O)CC(C)(C)C1(O)/C=C/C(C)=C\C(=O)O` (stereo not given), > 4 mM (inactive). As to `Cc1ccc(NC(=O)C2CCN(S(C)(=O)=O)CC2)cc1`, the Kd was > 4 mM (inactive). Turning to `O=C1c2cccnc2C(=O)N1Cc1ccco1`, the Kd is > 4 mM (inactive). `O=C(O)c1ccc(CN2CCCCC2)o1`: the Kd was > 4 mM (inactive).

On to `COc1ccc2c(c1)c1n[nH]c(=S)nc1n2C`, for which the Kd was > 4 mM (inactive). Turning to `CC(C)NC(=S)N1CCN(S(C)(=O)=O)CC1`, the Kd was > 4 mM (inactive). As for `c1ccc(Cn2cccc2)nc1`, the Kd was > 4 mM (inactive). The same measure for `CN1CN(Cc2ccccc2)CN/C1=N/[N+](=O)[O-]`: > 4 mM (inactive); for `CC(=O)Nc1cccc(N2C(=O)CCC2=O)c1`: > 4 mM (inactive); for `O=C(O)c1ccc(-c2cnco2)cc1`: > 4 mM (inactive). Take `CC(=O)Nc1cc(O)cc(O)c1`: the Kd is > 4 mM (inactive). On to `CN1CCC[C@H]1c1cccnc1`, for which the Kd was > 4 mM (inactive). Consider `O=C(Nc1ccc(N2CCOCC2)cc1)c1cnsn1`, for which the Kd is > 4 mM (inactive). With `Cc1cc(C)nc(NC(N)=NCc2ccco2)n1`, the Kd is > 4 mM (inactive). The same measure for `C[C@H]1C(=O)O[C@@H]2CCN3CC=C(COC(=O)[C@](C)(O)[C@]1(C)O)[C@H]23`: > 4 mM (inactive); for `Nc1cc(=O)[nH]c(SCC(=O)NC2CCCCC2)n1`: > 4 mM (inactive).

On to `O=C(O)c1cccc(CSc2ncccn2)c1`, for which the Kd is > 4 mM (inactive). As for `C=C(C)[C@H]1Cc2c(ccc3c2O[C@@H]2COc4cc(OC)c(OC)cc4[C@@H]2C3=O)O1`, the Kd was > 4 mM (inactive). Regarding `CN1CCN(C(=O)c2ccco2)CC1`, the Kd is > 4 mM (inactive).

For `OC12C=CC(CC1)CC2`, the Kd is > 4 mM (inactive). As for `O=C1NC(=Nc2ccc(O)cc2)S/C1=C/c1ccco1`, the Kd is > 4 mM (inactive).

As for `CC(C)(C)c1ccc(SCC(N)=O)cc1`, the Kd is > 4 mM (inactive). For the molecule `CCN(CC)S(=O)(=O)c1cccc2nsnc12`, the Kd was > 4 mM (inactive).

For `CN1CCC(NC(=O)c2cccnc2)CC1`, the Kd is > 4 mM (inactive). Turning to `CCN1CC2(C)CC[C@H](OC)[C@]34C2[C@H](O)C2(OCO[C@@]25C[C@H](OC)[C@H]2C[C@]3(O)C5[C@H]2O)C14`, the Kd is > 4 mM (inactive). Consider `O=C(NCc1cccc(Cl)c1)c1cnccn1`, for which the Kd was > 4 mM (inactive).

Take `NC(=O)CC1NC(=O)c2ccccc21` (stereo not given): the Kd was > 4 mM (inactive). Take `CCn1nnnc1Oc1ccc(Cl)cc1`: the Kd is > 4 mM (inactive). Consider `Nc1nc(=S)n2c(n1)oc1ccccc12`, for which the Kd is > 4 mM (inactive). In the case of `Cn1ncc(CO)c1-c1ccccc1`, the Kd was > 4 mM (inactive). Turning to `Clc1ccc(SCCn2cncn2)cc1`, the Kd was > 4 mM (inactive). Regarding `c1cncc(Nc2nc(-c3ccncc3)cs2)c1`, the Kd is > 4 mM (inactive). The same measure for `Cc1c(C(=O)Nc2ccncc2)oc2c1C(=O)CC(C)(C)C2`: > 4 mM (inactive); for `CC(=O)O[C@H]1CC[C@@]2(C)C(CC[C@]3(C)C2CC=C2C4CC(C)(C)CC[C@]4(C)CC[C@]23C)C1(C)C` (stereo not given in full): > 4 mM (inactive). As for `Cc1cc(C)n2nc(SCC(=O)c3ccccc3)nc2n1`, the Kd was > 4 mM (inactive). With `S=c1[nH]ncn1-c1ccccc1`, the Kd is > 4 mM (inactive).

`Cc1nc(SCC#N)c2c3c(sc2n1)CCC3`: the Kd was > 4 mM (inactive). For `Cc1noc(C)c1C(=O)Nc1cccnc1` the value was > 4 mM (inactive); for `O=C(O)CCC(=O)NCc1cccnc1`, > 4 mM (inactive).

The Kd is a measure of binding affinity in units of concentration.
